According to patent US8708475B2, “Ultraviolet crosslinking inkjet ink, ink cartridge containing same, and image forming method and apparatus using same” (Ricoh Company, Ltd., priority 2010, dated 2014):
Entries after “also recorded” stand apart in the source; their conditions may differ. Read-outs that look alike come from different tables or passages of the source.

Legend:
[1] = described in the MSDS; cited from earlier work
mice [2] = details: mouse, in vivo
[3] = in vivo; cited from earlier work
mice [4] = experiment: LLNA method skin sensitization test (OECD Test Guideline 429), stimulation index from BrdU content of auricular lymph nodes; details: mouse, in vivo
[5] = maximization method, Contact Dermatitis 8 223-235 (1982); cited from earlier work

CSc1ccc(C(=O)C(C)(C)N2CCOCC2)cc1 [2-Methyl-1-[4-(methylthio)phenyl]-2-morphorinopropane-1-one]
skin sensitization potential [1]: no skin sensitization potential; also recorded: pane-1-one (nega-

C=C(C)C(=O)OCC(C)(C)COC(=O)C(=C)C [Neopentyl glycol dimethacrylate]
SI value, bound stated for listed methacrylates (mice [2]; female, 3 days): less than 3

C=CC(=O)OCC(CC)(COC(=O)C=C)COC(=O)C=C [Trimethylolpropane triacrylate]
skin irritation potential (in words) [3]: high skin irritation potential

C=C(C)C(=O)OCC(CC)(COC(=O)C(=C)C)COC(=O)C(=C)C [Trimethylolpropane trimethacrylate]
skin sensitization potential (in words) (mice [4]): low skin sensitization potential
skin irritation potential (in words) [3]: low skin irritation potential

C=C(C)C(=O)OCCCCCC [n-Hexyl methacrylate]
skin sensitization potential [5]: negative skin sensitization potential
SI value, bound stated for listed methacrylates (mice [2]): less than 3

C=C(C)C(=O)OCCCCC [n-Pentyl methacrylate]
skin sensitization potential [5]: negative skin sensitization potential
SI value, bound stated for listed methacrylates (mice [2]): less than 3

C=C(C)C(=O)OC(C)(C)C [t-Butyl methacrylate]
skin sensitization potential [5]: negative skin sensitization potential
SI value, bound stated for listed methacrylates (mice [2]): less than 3

Polyethylene glycol (400) dimethacrylate
SI value, bound stated for listed methacrylates (mice [2]): less than 3

Polyethylene glycol (600) dimethacrylate
SI value, bound stated for listed methacrylates (mice [2]): less than 3
